Source: patent publication US20260176313A1, “TGF-BETA-1 VACCINE” (IO BIOTECH APS, priority 2022, published 2026)

How the values were obtained:
[1] = tested on: PBMCs from healthy donors; test: In vitro IFNγ ELISPOT screening for immune responses to TGFb-1 peptides; assay type: cell-based, human; conditions: for Positive Donors (out of 14): donors with significant response: Fisher test <0.01, ratio peptide:control >2, background subtracted spots >25; for Median Spots: median of background subtracted average spots for each donor across all 14 donors, 7 days after peptide stimulation
Description: FIG. 6. IFNγ ELISPOT identifies strong and frequent immune responses. Immune responses to TGFb-1 peptides were identified in PBMCs from 14 healthy donors. PBMCs were stimulated with the indicated TGFb-1 peptides and responses were analyzed after seven days by IFNγ ELISPOT. Significant responses (*) were defined by a Fisher exact P value<0.01, a ratio of peptide to control spots>2, and background subtracted spots>25. Peptides that elicited responses in the greatest number of donors were subsequently tested for the specificity of the response to TGFb-1.
(§1) For in vitro ELISPOT, peripheral blood […] cells (PBMCs) from healthy donors were pulsed with 20 μM of TGFb-derived peptides and 20 U/ml IL-2 in 24-well plates for 7 days before being used in an ELISPOT assay. The cells were placed in 96-well nitrocellulose ELISPOT plates (MultiScreen IP Filter Plate, MSIPN4W50; Millipore) pre-coated with interferon gamma (IFNγ) capture antibody (Mabtech). TGFb peptides are added to a final concentration of 5 μM, control stimulation (DMSO) added to control wells and plates are incubated at 37° C. for 16-20 hours. After the incubation the cells were washed off and secondary biotinylated Ab (Mabtech) was added for 2 hours at room temperature. Unbound secondary antibody was washed off and streptavidin conjugated alkaline phosphatase (AP) (Mabtech) was added for 1 hour at room temperature. Unbound conjugated enzyme was washed off and the assay was developed by adding BCIP/NBT substrate (Mabtech). Developed ELISPOT plates were analysed on CTL ImmunoSpot S6 Ultimate-V analyzer using Immunospot software v5.1.
(§2) In order to identify whether the low homology peptides selected based on sequence alignment were able to elicit immune responses in humans, the IFNγ ELISPOT assay was used. PBMCs from a total of 14 healthy donors were used to screen for immune responses. PBMCs were exposed to each peptide individually to induce a peptide-specific immune response and proliferation of peptide-specific T cells. Seven days later, the frequency of peptide-specific T cells were assayed by IFNγ ELISPOT. IFNγ ELISPOT identified several peptides that elicited strong (number of spots) and frequent (number of donors) immune responses, as shown in FIG. 6. Five peptides were selected on this basis (see Table 4). These five peptides were subsequently assayed for TGFb-1-selectivity by assaying for cross-reactive immune responses to TGFb-2 and TGFb-3 peptides in the IFNγ ELISPOT assay, as shown in FIG. 7 and FIG. 8.

[2] = tested on: PBMCs from healthy donors; test: IFNγ ELISPOT recall assay for cross-reactive responses to homologous TGFb-2 and TGFb-3 peptides; assay type: cell-based, human; conditions: for TGFb-1 selectivity / cross-reactivity of IFNγ ELISPOT immune response to homologous TGFb-2 and TGFb-3 peptides: donor PBMCs stimulated with TGFb-1 peptide, recall after seven days
Description: FIG. 7A-B. IFNγ ELISPOT to identify TGFb-1-selective immune responses. Donor PBMCs were stimulated with the indicated TGFb-1 peptides (Pep01-1, Pep04-1, Pep05-1, Pep08-1, Pep09-1 and Pep12-1) and after seven days were tested for a recall response by IFNγ ELISPOT assay using the same TGFb-1 peptide, or homologous TGFb-2 peptide (i.e. Pep01-2, Pep04-2, Pep05-2, Pep08-2, Pep09-2 or Pep12-2) or TGFb-3 peptide (i.e. Pep01-3, Pep04-3, Pep05-3, Pep08-3, Pep09-3 or Pep12-3). The highly homologous peptides Pep12-1, Pep12-2 and Pep12-3 were included as positive controls for detecting cross-reactive immune responses to TGFb-2 and TGFb-3. In FIG. 7A, for each peptide tested, boxplots on the left hand side correspond to responses using the same TGFb-1 peptide, boxplots in the middle correspond to responses using homologous TGFb-2 peptides and boxplots on the right hand side correspond to responses using homologous TGFb-3 peptides.
FIG. 8. IFNγ ELISPOT to identify TGFb-1-selective immune responses. The same data shown in FIG. 7 were plotted to show responses for individual peptides and donors. […] Significant responses (*) were defined by a Fisher exact P value<0.01, a ratio of peptide to control spots>2, and background subtracted spots>25.
as §1, §2

[3] = tested on: splenocytes loaded with the assay peptide (SLP1_Ib); test: In vivo cytotoxicity assay; set-up: species or system mouse; conditions: analysed 18 hours after i.v. injection of labeled splenocytes
Description: FIG. 11. TGFb-1 vaccine promotes targeted in vivo cell killing. An in vivo cytotoxicity assay was used to compare cell killing in mice vaccinated with SLP1 versus the class I epitope SLP1_Ib (SIYMFFNT). Vaccinated mice (duplicates) were injected with differentially labeled splenocytes loaded with the assay peptide (SLP1_Ib) or a control peptide. Cell killing was determined by comparing the recovery of the splenocytes using control-peptide-loaded splenocytes as an internal control for cell recovery. OVA peptide was included as a positive control.
The in vivo cytotoxicity assay was performed by injecting peptide-loaded splenocytes from untreated donor mice into vaccinated mice. Freshly isolated splenocytes were incubated with 5 μM peptide in media (RPMI, 10% Fetal Bovine Serum) for 1 hour at 37 C. Splencoytes were loaded with assay peptide (SLP1_Ib) or control peptide (P53, AIYKKSQHM) separately. […] Cell killing was analyzed after 18 hours by isolating splenocytes from injected mice and comparing the recovery of FarRed and Violet labeled cells by flow cytometry. Specific killing of assay pulsed splenocytes was calculated as follows: […]

[4] = tested on: mice; test: IFNγ ELISPOT assay of immune responses in mice vaccinated with synthetic long peptides; assay type: in vivo, mouse; conditions: mice vaccinated with SLP; recall with minimal class I / class II peptides
Description: FIG. 9. TGFb-1 vaccine induces robust immune responses. Mice were vaccinated with two different synthetic long peptides (SLPs) and immune responses were analyzed by IFNγ ELISPOT assay. ELISPOT responses for individual mice are shown. Results for control peptides are clearly indicated.
(§3) For the MC38 tumor study, female C56/BL6 mice (Tacomic) were vaccinated with 100 μg of peptide (SEQ ID: 31 or SEQ ID NO: 34) prepared in DMSO and diluted in water to a total volume of 50 μl (per injection) before mixing with an equal volume of Montanide ISA51 VG ST adjuvant to form an emulsion. The vaccine formulation was administered subcutaneously (s.c.) at the tail base on Days 0, 7, and 14. MC38 tumor cells (2e5 per injection) were administered s.c. in the flank on day 0. Every 3 to 4 days, tumors were measured with a Vernier caliper and the tumor volume was calculated using the formula: V=L×W2/2, where V is tumor volume, L is the length of tumor (longer axis), and W is the width of the tumor (shorter axis).
A murine TGFb-1 vaccine was developed based on synthetic long peptides (SLPs) encoding predicted MHC class I and class II epitopes (SEQ ID NOs: 31-36 in Table 1 below). Pre-clinical studies of anti-TGFb therapies often fail to show any impact on tumor growth when administered as a monotherapy.

[5] = tested on: MC38 tumor; test: Analysis of tumor microenvironment (TME) by flow cytometry in MC38 tumor study; assay type: in vivo, mouse; conditions: vaccinated Days 0, 7, 14, termination day 21
Description: FIG. 10A-D. TGFb-1 vaccine drives derived immune permissive changes in the TME. Tumor weight was compared between groups at experiment termination (day 21). TGFB-1 expression was assayed by latency associated peptide (LAP) staining.
as §3
Freshly isolated tumors were dissociated by collagenase digestion to yield a single cell suspension for flow cytometry analysis. Approximately 1 million cells were stained for analysis by flow cytometry using a Symphony Al flow cytometer (BD, Becton Dickinson) with the following antibodies, anti-mouse LAP BV421 (BD, 565638), anti-mouse CD4 BV605 (BD, 743156) and anti-mouse CD8 BV786 (BD, 563332). Data analysis was performed using FlowJo software.

Sequence	Positive Donors (out of 14) [1]	Median Spots [1]	TGFb-1 selectivity / cross-reactivity of IFNγ ELISPOT immune response to homologous TGFb-2 and TGFb-3 peptides [2]	other results
REAVPEPVLLSRAELRLLRL [Pep09-1, polypeptide fragment of human TGFb-1, positions 141-160]	7	37	strong and frequent immune responses in healthy donors that are selective to TGFb-1	
REAVPEPVLLSRAELRLLRLKLKVEQHVE [Pep11-1, polypeptide fragment of human TGFb-1, positions 141-169]	5	14		
LMVETHNEIYDKFKQSTHSIYMFFNTSEL [Pep02-1, polypeptide fragment of human TGFb-1, positions 112-140]	6	28		
DMPPFFPSENAIPPTFYRPYFRIVREDVSAMEKNASNLV (DMPPFFPSENAIPPTFYRPYFRIVRFDVSAMEKNASNLV) [Pep01-2, homologous polypeptide fragment of human TGFb-2, positions 107-145, reference compound]			observed only once	Number of other donors in which cross reactivity was not observed ([2]; donors tested with Pep01-1/Pep01-2 peptide combination): 7
YMFFNTSELREAVPEPVLLSRAELRLLRLKLKVEQHVE [Pep10-1, polypeptide fragment of human TGFb-1, positions 132-169]	5	8		
LMVETHNEIYDKFKQSTHSIYMFFNTSELREAVPEPVLLS [Pep01-1, polypeptide fragment of human TGFb-1, positions 112-151]	9	67	strong and frequent immune responses in healthy donors that are selective to TGFb-1	
VKRKRIEAIRGQILSKLRLA [Pep12-1, reference compound]			induced immune responses that cross-reacted with homologous TGFb-2 and TGFb-3 peptides	TGFb-1 selectivity / cross-reactivity of IFNγ ELISPOT immune response to homologous TGFb-2 and TGFb-3 peptides ([2]; listed as Pep12): displayed cross-reactivity in all donors that exhibited significant responses to the TGFb-1 homolog
SIYMFFNT [SLP1_Ib, TGFb-1 positions 130-137]				Cytotoxic activity (specific killing) toward SLP1_Ib-loaded splenocytes in vaccinated mice [3]: cytotoxic activity was higher
YDKFKQSTHSIYMFFNTSELREAVPEPVLLS [Pep04-1, polypeptide fragment of human TGFb-1, positions 121-151]	7	34	strong and frequent immune responses in healthy donors that are selective to TGFb-1	
DSRDNTLQVDINGFTTGRRGDLATIHGMNRPFLLL [Pep06-1, polypeptide fragment of human TGFb-1, positions 226-260]	5	25		
LMVETHNEIYDKFKQSTHSIYMFF [Pep03-1, polypeptide fragment of human TGFb-1, positions 112-135]	6	16		
YDKFKQSTHSIYMFFNTSEL [Pep05-1, polypeptide fragment of human TGFb-1, positions 121-140]	7	23	strong and frequent immune responses in healthy donors that are selective to TGFb-1	
KDISHSIYMFFNTSDIREAVPEPPL [SLP1]				Immune response by IFNγ ELISPOT in vaccinated mice [4]: recognition of minimal peptides encoding class I and class II epitopes; Cytotoxic activity (specific killing) toward SLP1_Ib-loaded splenocytes in vaccinated mice [3]: results in cytotoxic activity toward cells loaded with the class I peptide antigen SLP1_Ib
TGRRGDLATIHGMNRPFLLL [Pep08-1, polypeptide fragment of human TGFb-1, positions 241-260]	7	22	strong and frequent immune responses in healthy donors that are selective to TGFb-1	
DINGFTTGRRGDLATIHGMNRPFLLL [Pep07-1, polypeptide fragment of human TGFb-1, positions 235-260]	5	12		
SLDTQYSKVLALYNQHNPGASASP [SLP2]				CD4+ T cell infiltration in TME [5]: significantly enhanced; CD8+ T cell infiltration in TME [5]: remained unchanged; Immune response by IFNγ ELISPOT in vaccinated mice [4]: mainly induced class II response
